Results from ChEMBL document CHEMBL3885861, “Open TG-GATES”.

Organism: Rattus norvegicus
Experiment: Open TG-GATES - Regimen: Single
Type: toxicity, organism-based, Sprague-Dawley
Design: regimen Single, gender Male, age 6 weeks
Settings: in vivo, po, 24 h, route gavage; for Bas / Eos / Hb / Ht / Lym / MCH / MCHC / MCV / Mono / Neu / Plat / RBC / Ret / WBC: tissue Blood; for KIDNEY_L / KIDNEY_R / KIDNEY_TOTAL: tissue Kidney; for LIVER: tissue Liver; for A/G / ALP / ALT / AST / BUN / CRE / Ca / Cl / DBIL / GLC / IP / K / Na / PL / RALB / TBIL / TC / TG / TP / gamma-GTP: tissue Plasma

Compound `COc1cc2c(c3oc(=O)c4c(c13)CCC4=O)[C@@H]1C=CO[C@@H]1O2` [AFLATOXIN] has a TERMINAL_BW (0 mg/kg, dose level Control) of 227.2 g, a Bas (0 mg/kg, dose level Control) of 0% and an Eos (0 mg/kg, dose level Control) of 1%. The Hb (0 mg/kg, dose level Control) was 12.7 g/dL, the Ht (0 mg/kg, dose level Control) was 37.5% and the Lym (0 mg/kg, dose level Control) was 79%. The MCH (0 mg/kg, dose level Control) was 20.7 pg, the MCHC (0 mg/kg, dose level Control) was 33.9% and the MCV (0 mg/kg, dose level Control) was 60.9 fL. The Mono (0 mg/kg, dose level Control) was 2.8%, the Neu (0 mg/kg, dose level Control) was 16.2% and the Plat (0 mg/kg, dose level Control) was 118.1 x10_4/uL. For the same compound, the RBC (0 mg/kg, dose level Control) was 616 x10_4/ul, the Ret (0 mg/kg, dose level Control) was 8.7% and the WBC (0 mg/kg, dose level Control) was 76.8 x10_2/uL. It also gave a KIDNEY_L (0 mg/kg, dose level Control) of 1 g, a KIDNEY_R (0 mg/kg, dose level Control) of 1 g and a KIDNEY_TOTAL (0 mg/kg, dose level Control) of 2.1 g. For the same compound, the LIVER (0 mg/kg, dose level Control) was 10.9 g, the A/G (0 mg/kg, dose level Control) was 1 and the ALP (0 mg/kg, dose level Control) was 1775.8 IU/L. For the same compound, the ALT (0 mg/kg, dose level Control) was 40 IU/L, the AST (0 mg/kg, dose level Control) was 72.2 IU/L and the BUN (0 mg/kg, dose level Control) was 16.5 mg/dL. The CRE (0 mg/kg, dose level Control) was 0.2 mg/dL, the Ca (0 mg/kg, dose level Control) was 10.8 mg/dL and the Cl (0 mg/kg, dose level Control) was 104.1 meq/L. For the same compound, the DBIL (0 mg/kg, dose level Control) was 0.002 mg/dL, the GLC (0 mg/kg, dose level Control) was 189.4 mg/dL and the IP (0 mg/kg, dose level Control) was 7 mg/dL. It also gave a K (0 mg/kg, dose level Control) of 4.5 meq/L, a Na (0 mg/kg, dose level Control) of 139.2 meq/L and a PL (0 mg/kg, dose level Control) of 153.4 mg/dL. The RALB (0 mg/kg, dose level Control) was 2.8 g/dL, the TBIL (0 mg/kg, dose level Control) was 0 mg/dL and the TC (0 mg/kg, dose level Control) was 76.2 mg/dL. The TG (0 mg/kg, dose level Control) was 141.9 mg/dL, the TP (0 mg/kg, dose level Control) was 5.7 g/dL and the gamma-GTP (0 mg/kg, dose level Control) was 0.8 IU/L. For the same compound, the TERMINAL_BW (1 mg/kg, dose level Low) was 220.4 g, the Bas (1 mg/kg, dose level Low) was 0% and the Eos (1 mg/kg, dose level Low) was 0.8%. The Hb (1 mg/kg, dose level Low) was 12.8 g/dL, the Ht (1 mg/kg, dose level Low) was 37.6% and the Lym (1 mg/kg, dose level Low) was 74.6%. The MCH (1 mg/kg, dose level Low) was 20.5 pg, the MCHC (1 mg/kg, dose level Low) was 34.2% and the MCV (1 mg/kg, dose level Low) was 60 fL. For the same compound, the Mono (1 mg/kg, dose level Low) was 4.8%, the Neu (1 mg/kg, dose level Low) was 19.2% and the Plat (1 mg/kg, dose level Low) was 127.7 x10_4/uL. It also gave an RBC (1 mg/kg, dose level Low) of 627.4 x10_4/ul, a Ret (1 mg/kg, dose level Low) of 8.8% and a WBC (1 mg/kg, dose level Low) of 97.6 x10_2/uL. It also gave a KIDNEY_L (1 mg/kg, dose level Low) of 1 g, a KIDNEY_R (1 mg/kg, dose level Low) of 1 g and a KIDNEY_TOTAL (1 mg/kg, dose level Low) of 2 g. For the same compound, the LIVER (1 mg/kg, dose level Low) was 10.2 g, the A/G (1 mg/kg, dose level Low) was 1 and the ALP (1 mg/kg, dose level Low) was 1769.4 IU/L. For the same compound, the ALT (1 mg/kg, dose level Low) was 59.6 IU/L, the AST (1 mg/kg, dose level Low) was 97 IU/L and the BUN (1 mg/kg, dose level Low) was 15.7 mg/dL. The CRE (1 mg/kg, dose level Low) was 0.2 mg/dL, the Ca (1 mg/kg, dose level Low) was 10.7 mg/dL and the Cl (1 mg/kg, dose level Low) was 103.9 meq/L. The DBIL (1 mg/kg, dose level Low) was 0.002 mg/dL, the GLC (1 mg/kg, dose level Low) was 171.4 mg/dL and the IP (1 mg/kg, dose level Low) was 7.5 mg/dL. It also gave a K (1 mg/kg, dose level Low) of 4.4 meq/L, a Na (1 mg/kg, dose level Low) of 138.8 meq/L and a PL (1 mg/kg, dose level Low) of 150.2 mg/dL. It also gave an RALB (1 mg/kg, dose level Low) of 2.8 g/dL, a TBIL (1 mg/kg, dose level Low) of 0 mg/dL and a TC (1 mg/kg, dose level Low) of 84.4 mg/dL. It also gave a TG (1 mg/kg, dose level Low) of 93.8 mg/dL, a TP (1 mg/kg, dose level Low) of 5.7 g/dL and a gamma-GTP (1 mg/kg, dose level Low) of 1 IU/L. It also gave a TERMINAL_BW (3 mg/kg, dose level Middle) of 219.9 g, a Bas (3 mg/kg, dose level Middle) of 0% and an Eos (3 mg/kg, dose level Middle) of 0.4%. For the same compound, the Hb (3 mg/kg, dose level Middle) was 13.4 g/dL, the Ht (3 mg/kg, dose level Middle) was 39.5% and the Lym (3 mg/kg, dose level Middle) was 74.2%. For the same compound, the MCH (3 mg/kg, dose level Middle) was 20.1 pg, the MCHC (3 mg/kg, dose level Middle) was 33.8% and the MCV (3 mg/kg, dose level Middle) was 59.5 fL. For the same compound, the Mono (3 mg/kg, dose level Middle) was 5.2%, the Neu (3 mg/kg, dose level Middle) was 18.6% and the Plat (3 mg/kg, dose level Middle) was 114.1 x10_4/uL. For the same compound, the RBC (3 mg/kg, dose level Middle) was 663 x10_4/ul, the Ret (3 mg/kg, dose level Middle) was 8.5% and the WBC (3 mg/kg, dose level Middle) was 84.9 x10_2/uL. It also gave a KIDNEY_L (3 mg/kg, dose level Middle) of 0.9 g, a KIDNEY_R (3 mg/kg, dose level Middle) of 0.9 g and a KIDNEY_TOTAL (3 mg/kg, dose level Middle) of 1.9 g. For the same compound, the LIVER (3 mg/kg, dose level Middle) was 10.1 g, the A/G (3 mg/kg, dose level Middle) was 1 and the ALP (3 mg/kg, dose level Middle) was 1736.6 IU/L. It also gave an ALT (3 mg/kg, dose level Middle) of 135 IU/L, an AST (3 mg/kg, dose level Middle) of 232 IU/L and a BUN (3 mg/kg, dose level Middle) of 15.8 mg/dL. The CRE (3 mg/kg, dose level Middle) was 0.2 mg/dL, the Ca (3 mg/kg, dose level Middle) was 10.7 mg/dL and the Cl (3 mg/kg, dose level Middle) was 105.1 meq/L. The DBIL (3 mg/kg, dose level Middle) was 0.012 mg/dL, the GLC (3 mg/kg, dose level Middle) was 167.8 mg/dL and the IP (3 mg/kg, dose level Middle) was 8.1 mg/dL. It also gave a K (3 mg/kg, dose level Middle) of 4.4 meq/L, a Na (3 mg/kg, dose level Middle) of 139.3 meq/L and a PL (3 mg/kg, dose level Middle) of 168 mg/dL. For the same compound, the RALB (3 mg/kg, dose level Middle) was 2.7 g/dL, the TBIL (3 mg/kg, dose level Middle) was 0.01 mg/dL and the TC (3 mg/kg, dose level Middle) was 84.4 mg/dL. The TG (3 mg/kg, dose level Middle) was 112.4 mg/dL, the TP (3 mg/kg, dose level Middle) was 5.5 g/dL and the gamma-GTP (3 mg/kg, dose level Middle) was 1.5 IU/L. For the same compound, the TERMINAL_BW (10 mg/kg, dose level High) was 214.9 g, the Bas (10 mg/kg, dose level High) was 0% and the Eos (10 mg/kg, dose level High) was 0.6%. It also gave a Hb (10 mg/kg, dose level High) of 14 g/dL, a Ht (10 mg/kg, dose level High) of 40.8% and a Lym (10 mg/kg, dose level High) of 47.8%. It also gave an MCH (10 mg/kg, dose level High) of 20.7 pg, an MCHC (10 mg/kg, dose level High) of 34.3% and an MCV (10 mg/kg, dose level High) of 60.5 fL. For the same compound, the Mono (10 mg/kg, dose level High) was 2.8%, the Neu (10 mg/kg, dose level High) was 47% and the Plat (10 mg/kg, dose level High) was 104.8 x10_4/uL. It also gave an RBC (10 mg/kg, dose level High) of 674.6 x10_4/ul, a Ret (10 mg/kg, dose level High) of 8.4% and a WBC (10 mg/kg, dose level High) of 101.9 x10_2/uL. It also gave a KIDNEY_L (10 mg/kg, dose level High) of 1 g, a KIDNEY_R (10 mg/kg, dose level High) of 1 g and a KIDNEY_TOTAL (10 mg/kg, dose level High) of 2 g. For the same compound, the LIVER (10 mg/kg, dose level High) was 9 g, the A/G (10 mg/kg, dose level High) was 1 and the ALP (10 mg/kg, dose level High) was 2013.2 IU/L. It also gave an ALT (10 mg/kg, dose level High) of 292.6 IU/L, an AST (10 mg/kg, dose level High) of 630.8 IU/L and a BUN (10 mg/kg, dose level High) of 19.7 mg/dL. The CRE (10 mg/kg, dose level High) was 0.2 mg/dL, the Ca (10 mg/kg, dose level High) was 10.7 mg/dL and the Cl (10 mg/kg, dose level High) was 103.7 meq/L. For the same compound, the DBIL (10 mg/kg, dose level High) was 0.094 mg/dL, the GLC (10 mg/kg, dose level High) was 153.2 mg/dL and the IP (10 mg/kg, dose level High) was 9.1 mg/dL. It also gave a K (10 mg/kg, dose level High) of 4.1 meq/L, a Na (10 mg/kg, dose level High) of 138.9 meq/L and a PL (10 mg/kg, dose level High) of 158.2 mg/dL. The RALB (10 mg/kg, dose level High) was 2.8 g/dL, the TBIL (10 mg/kg, dose level High) was 0.1 mg/dL and the TC (10 mg/kg, dose level High) was 87.4 mg/dL. For the same compound, the TG (10 mg/kg, dose level High) was 32.9 mg/dL, the TP (10 mg/kg, dose level High) was 5.6 g/dL and the gamma-GTP (10 mg/kg, dose level High) was 2.9 IU/L.
